Laboratory results taken from patent US4329347A, “Cardiotonic and antithrombotic sulfur-containing derivatives of carbostyril” (Boehringer Ingelheim GmbH, priority 1978, dated 1982).
Read-outs that look alike come from different tables or passages of the source. Each block holds one molecule with its values, some of them ahead of it.

What was measured:
[1] = test system: phosphodiesterase (PDE), supernatant of human blood platelets; assay: PDE inhibition (3H-cAMP hydrolysis); format: biochemical; details: human blood platelet PDE, 1 μmol/liter 3H-cAMP, pH 7.4, 15 minutes, 37° C.
Experimental: cAMP is hydrolysed to AMP by phosphodiesterase (PDE) from various sources, including blood platelets. This hydrolysis is inhibited by PDE inhibitors according to the concentration.
The phosphodiesterase used was the 10,000×g supernatant of human blood platelets which had been frozen with water and thawed out again.
An amount of 0.3 ml of a mixture which contained 0.1 mole/liter of trihydroxy-aminomethane (pH 7.4), 3 mmole/liter of magnesium chloride, 1 mmole/liter of AMP, 1 μmol/liter of ^3 H-cAMP (specific activity about 10 MBq/μmol), PDE as well as the substance to be tested and water for the control were incubated for 15 minutes at 37° C.
The incubation was stopped by the addition of 0.5 ml of zinc sulfate (0.266 mole/liter) and 0.5 ml of barium hydroxide (0.266 mole/liter), the precipitate was centrifuged and the activity remaining in the supernatant of the unreacted ^3 H-cAMP was determined. From a comparison of the substance preparations and the control preparations, the concentration for a 50% inhibiting activity (IC50) of the respective substance was calculated.

[2] = test system: Platelet Thromboses in the Rat; assay: Influence on platelet thromboses in the rat (electrical irritation of a vein); format: in vivo; details: male rats, five animals per dose, 20 minutes observation, vs. untreated group; dose not given
Experimental: Literature: H. Poliwoda, J. Lilli, G. Hagemann, D. Schyma: Z. ges. exp. Med., 145, 252 (1968)
Male rats (body weight between 70 and 90 grams) received an intraperitoneal Nembutal anesthesia (dose: 50 to 60 mg/kg). To avoid hypothermia, they were positioned on a heated test table (about 37° C.). The respiratory passage was held free by insertion of a tracheal cannula.
After a transverse abdominal incision was made, an intestinal loop was exposed and fixed, and a vein, with a diameter of about 300 μ was prepared. A monopolar platinum electrode embedded in glass and having a tip diameter of about 100μ was applied to the vein as an irritating cathode. The indifferent electrode was applied to the same vessel opposite the cathode. The irritation was provoked by 150 volts of direct current for a period of 100 milliseconds. After the irritation, the area of observation was continuously rinsed with warm (37° C.) physiological salt solution.
The formation and growth of the thrombosis was followed under a binocular microscope over a time period of 20 minutes. During the entire period of observation, the percentage of the vessel volume closed by the thrombosis was estimated at different time intervals.
Five animals per dose were used, and the results were averaged.
In the test compound experiments, the average size of the thrombosis in the treated animal group was compared with that of an untreated animal group. The result was given as "percentage reduction of the average thrombosis size." The following table contains the values obtained.

mice = assay: Acute toxicity, oral; format: in vivo; details: single oral dose of 1,000 mg/kg, 14 days observation
Experimental: (§1) The acute toxicity of the test compounds was determined on groups of 10 mice each after oral administration of a single dose of 1,000 mg/kg (observation time: 14 days).

Acute toxicity, oral = format: in vivo; details: mouse, in vivo; mice, single oral dose, 14 days observation; read-out: Acute Toxicity per os
Experimental: as §1

[3] = test system: thrombocyte aggregation in platelet-rich plasma of healthy human donors; assay: Thrombocyte aggregation inhibiting activity by the method of Born and Cross (platelet-rich plasma); format: cell-based; details: optical density
Experimental: 1. Determination of the thrombocyte aggregation inhibiting activity by the method of Born and Cross [J. Physiol. 170, 397 (1964)]:
The thrombocyte aggregation was measured in the platelet-rich plasma of healthy human donors. The decrease in optical density was measured and recorded photometrically after the addition of adenosine diphosphate or collagen. From the angle of inclination of the density curve, the rate of aggregation was estimated (Vmax). The optical density was taken as the point on the curve where the most light was transmitted (O.D.).
The EC50 values in the tables indicate the optical density.
Small doses of collagen were chosen, but sufficient to give irreversible aggregation. To provoke maximum aggregation, about 0.01 ml of the collagen solution was added to 1 ml of platelet-rich plasma. (Commercial collagen of Hormonchemie, Munich). The adenosine diphosphate (ADP) doses were chosen to give only the first phase of the BORN curve. The necessary amount of ADP was about 1×10^-6 mol/l. Commercial ADP of Boehringer Mannheim was used.
The substance dose which produced a 50% inhibition of the thrombozytes aggregation (EC50) was determined graphically.

conscious mice = assay: Prolongation of the bleeding time (mouse tail); format: in vivo; details: po, 10 mg/kg orally, after 1 hour, compared to control group, read-out: Prolongation of the bleeding time in % after one hour
Experimental: The function of the thrombocytes can be determined by measuring the bleeding time. The normal bleeding time in human beings is in the range of 1 to 3 minutes and needs intact thrombozytes in a sufficient number. If the number of thrombocytes is normal and the bleeding time is prolonged, this signifies a disturbed function of the thrombocytes. This is found in some congenital defects of thrombocyte function (V. Willebrand's disease, for example). If, on the other hand it is the aim to prevent spontaneous aggregation of the thrombocytes and occlusion in the arterial system by antithrombotic drugs, the bleeding time should be prolonged as a consequence. Therefore, using antithrombotic substances, a prolongation of the bleeding time is expected. If the plasma coagulation system is not influenced by such a medicine, coagulation tests will give a normal result.
To measure the bleeding time, 10 mg/kg of the test compound is administered orally to conscious mice. After 1 hour, 0.5 mm of the tip of the mousetail is cut off and droplets of blood are gently removed with filter paper every 30 second. The number of drops of blood give a measure for the bleeding time (5 animals/experiment).
The numbers in the following table represent the prolongation in % compared to the control group.

[4] = ADP-induced (about 1×10^-6 mol/l), read-out: EC50 (50% inhibition of thrombocyte aggregation), ADP
[5] = collagen-induced, read-out: EC50 (50% inhibition of thrombocyte aggregation), Collagen

SMILES: O=c1ccc2cc(OCCCC[S+]([O-])c3ccc(-c4ccccc4)cc3)ccc2[nH]1 (stereo not drawn) [V, 6-[4-(4-Biphenylylsulfinyl)-butoxy]-carbostyril]
IC50 [1]: 0.12 µM

SMILES: Cc1cc(=O)[nH]c2ccc(OCCCC[S+]([O-])c3ccccn3)cc12 (stereo not drawn) [KK, 4-Methyl-6-[4-(2-pyridylsulfinyl)-butoxy]-carbostyril]
Percentage Reduction of the Average Thrombosis Size [2]: 17%

SMILES: CC(C)(C)c1cc([S+]([O-])CCCCOc2ccc3[nH]c(=O)ccc3c2)cc(C(C)(C)C)c1O (stereo not drawn) [O, 6-[4-(4-Hydroxy-3,5-di-tert. butylphenyl-sulfinyl)-butoxy]-carbostyril]
animals died (acute toxicity per os) (mice): 0 out of 10 animals | LD50 at 336 h (Acute toxicity, oral): > 1000 mg/kg | EC50 [3, 4]: 0.5 µM | EC50 [3, 5]: 0.2 µM | Percentage Reduction of the Average Thrombosis Size [2]: 17% | IC50 [1]: 0.079 µM | change in vivo at 10 mg/kg (conscious mice): 73%

SMILES: O=C1CCc2cc(OCCCCSc3ccccn3)ccc2N1 [D, 6-[4-(2-Pyridyl-mercapto)-butoxy]-3,4-dihydro-carbostyril]
animals died (acute toxicity per os) (mice): 0 out of 10 animals | LD50 at 336 h (Acute toxicity, oral): > 1000 mg/kg | EC50 [3, 4]: > 100 µM | EC50 [3, 5]: 45 µM | IC50 [1]: 1.6 µM | change in vivo at 10 mg/kg (conscious mice): 76%

SMILES: O=c1ccc2cc(OCCCC[S+]([O-])c3ccc(C4CCCCC4)cc3)ccc2[nH]1 (stereo not drawn) [DD, 6-[4-(4-Cyclohexylphenylsulfinyl)-butoxy]-carbostyril]
Percentage Reduction of the Average Thrombosis Size [2]: 11% | IC50 [1]: 0.04 µM

IC50 [1]: 0.5 µM
SMILES: CN(C(=O)C[S+]([O-])CCOc1ccc2[nH]c(=O)ccc2c1)C1CCCCC1 (stereo not drawn) [Z, 6-[2-(N-Methyl-N-cyclohexyl-carbamidomethyl-sulfinyl)-ethoxy]-carbostyril]

SMILES: O=c1ccc2cc(OCCCC[S+]([O-])c3ccc4ccccc4n3)ccc2[nH]1 (stereo not drawn) [W, 6-[4-(2-Quinolylsulfinyl)-butoxy]-carbostyril]
IC50 [1]: 0.14 µM

SMILES: O=C1CCc2cc(OCCCC[S+]([O-])Cc3ccccc3)ccc2N1 (stereo not drawn) [H, 6-(4-Benzylsulfinyl-butoxy)-3,4-dihydro-carbostyril]
animals died (acute toxicity per os) (mice): 0 out of 10 animals | LD50 at 336 h (Acute toxicity, oral): > 1000 mg/kg | EC50 [3, 4]: 14 µM | EC50 [3, 5]: 2.5 µM | IC50 [1]: 1.6 µM | change in vivo at 10 mg/kg (conscious mice): 29%

SMILES: CC(C)(C)[S+]([O-])CCCCOc1ccc2c(c1)CCC(=O)N2 (stereo not drawn) [HH, 6-(4-tert.Butylsulfinyl-butoxy)-3,4-dihydrocarbostyril]
Percentage Reduction of the Average Thrombosis Size [2]: 19%

SMILES: CC(C)(C)c1ccc([S+]([O-])CCCCOc2ccc3[nH]c(=O)ccc3c2)cc1 (stereo not drawn) [EE, 6-[4-(4-tert.-Butylphenylsulfinyl)-butoxy]-carbostyril]
IC50 [1]: 0.03 µM

SMILES: O=c1ccc2cc(OCCCC[S+]([O-])C3CCCCC3)ccc2[nH]1 (stereo not drawn) [X, 6-(4-Cyclohexylsulfinyl-butoxy)-carbostyril]
IC50 [1]: 0.7 µM

SMILES: O=C1CCc2cccc(OCCCCSc3ccccc3)c2N1 [II, 8-(4-Phenylmercapto-butoxy)-3,4-dihydro-carbostyril]
Percentage Reduction of the Average Thrombosis Size [2]: 4%

SMILES: O=c1ccc2cc(OCCCC[S+]([O-])c3ccccc3)ccc2[nH]1 (stereo not drawn) [N, 6-(4-Phenylsulfinyl-butoxy)-carbostyril]
EC50 [3, 4]: 3 µM | EC50 [3, 5]: 0.6 µM | Percentage Reduction of the Average Thrombosis Size [2]: 24% | IC50 [1]: 0.47 µM

SMILES: O=C1CCc2cc(OCCCCSc3ccccc3)ccc2N1 [A, 6-(4-Phenylmercapto-butoxy)-3,4-dihydro-carbostyril]
animals died (acute toxicity per os) (mice): 0 out of 10 animals | LD50 at 336 h (Acute toxicity, oral): > 1000 mg/kg | EC50 [3, 4]: > 100 µM | EC50 [3, 5]: 50 µM | IC50 [1]: 0.78 µM | change in vivo at 10 mg/kg (conscious mice): 145%

SMILES: Nc1c(Br)cc([S+]([O-])CCCCOc2ccc3c(c2)CCC(=O)N3)cc1Br (stereo not drawn) [AA, 6-[4-(3,5-Dibromo-4-aminophenylsulfinyl)-butoxy]-3,4-dihydrocarbostyril]
IC50 [1]: 0.25 µM

SMILES: O=c1ccc2c(Br)c(OCCCC[S+]([O-])c3ccccc3)ccc2[nH]1 (stereo not drawn) [Y, 5-Bromo-6-(4-phenylsulfinyl-butoxy)-carbostyril]
IC50 [1]: 0.1 µM

SMILES: Nc1c(Br)cc([S+]([O-])CCCCOc2ccc3[nH]c(=O)ccc3c2)cc1Br (stereo not drawn) [BB, 6-[4-(3,5-Dibromo-4-aminophenylsulfinyl)-butoxy]-carbostyril]
IC50 [1]: 0.05 µM

SMILES: O=C1CCc2cc(OCCCC[S+]([O-])c3ccc(C4CCCCC4)cc3)ccc2N1 (stereo not drawn) [CC, 6-[4-(4-Cyclohexylphenylsulfinyl)-butoxy]-3,4-dihydro-carbostyril]
IC50 [1]: 1.6 µM

SMILES: O=C1CCc2cc(OCC[S+]([O-])c3ccccc3)ccc2N1 (stereo not drawn) [G, 6-(2-Phenylsulfinyl-ethoxy)-3,4-dihydro-carbostyril]
animals died (acute toxicity per os) (mice): 0 out of 10 animals | LD50 at 336 h (Acute toxicity, oral): > 1000 mg/kg | EC50 [3, 4]: 17 µM | EC50 [3, 5]: 3.5 µM | IC50 [1]: 3.4 µM | change in vivo at 10 mg/kg (conscious mice): 5%

SMILES: O=c1ccc2cc(OCCCC[S+]([O-])c3ccccn3)ccc2[nH]1 (stereo not drawn) [JJ, 6-[4-(2-Pyridylsulfinyl)-butoxy]-carbostyril]
Percentage Reduction of the Average Thrombosis Size [2]: 29%

SMILES: O=C1CCc2cc(OCCCC[S+]([O-])C3CCCCC3)ccc2N1 (stereo not drawn) [K, 6-(4-Cyclohexylsulfinyl-butoxy)-3,4-dihydro-carbostyril]
animals died (acute toxicity per os) (mice): 0 out of 10 animals | LD50 at 336 h (Acute toxicity, oral): > 1000 mg/kg | EC50 [3, 4]: 12 µM | EC50 [3, 5]: 4.5 µM | IC50 [1]: 2.5 µM | change in vivo at 10 mg/kg (conscious mice): 12%

SMILES: O=C1CCc2cc(OCCCCS(=O)(=O)c3ccc(Cl)c(Cl)c3)ccc2N1 [R, 6-[4-(3,4-Dichlorophenyl-sulfonyl)-butoxy]-3,4-dihydro-carbostyril]
animals died (acute toxicity per os) (mice): 0 out of 10 animals | LD50 at 336 h (Acute toxicity, oral): > 1000 mg/kg | EC50 [3, 4]: 25 µM | EC50 [3, 5]: 1.5 µM | IC50 [1]: 1.8 µM | change in vivo at 10 mg/kg (conscious mice): 30%

SMILES: O=c1ccc2cc(OCCCC[S+]([O-])c3ccc(Cl)c(Cl)c3)ccc2[nH]1 (stereo not drawn) [P, 6-[4-(3,4-Dichlorophenyl-sulfinyl)-butoxy]-carbostyril]
animals died (acute toxicity per os) (mice): 0 out of 10 animals | LD50 at 336 h (Acute toxicity, oral): > 1000 mg/kg | EC50 [3, 4]: 1.8 µM | EC50 [3, 5]: 0.2 µM | Percentage Reduction of the Average Thrombosis Size [2]: 15% | IC50 [1]: 0.22 µM | change in vivo at 10 mg/kg (conscious mice): 12%
